These are literature values, as cited in US20060252804A1, “Flupirtin injectable galenic form” (AWD.pharma GMBH &Co. KG, priority 2003, published 2006).

The structures appear in SMILES notation.

For the data set the following is noted: in aqueous solutions and in most physiologically tolerated organic solvents.

`CCOC(=O)Nc1ccc(NCc2ccc(F)cc2)nc1N` [flupirtine, 2-amino-3-carbethoxyamino-6-(4-fluorobenzylamino)pyridine]: the solubility entry is “scarcely soluble”.
